Activity calls are given as the source filed them.
What was measured:
Cytochrome P450 2D6 = Cytochrome P450 2D6 (Homo sapiens, UniProt P10635);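 note: CYP2D6 member of a cytochrome P450 panel assay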
Cytochrome P450 3A4 = Cytochrome P450 3A4 (Homo sapiens, UniProt P08684);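 note: CYP3A4 tested as one member of a cytochrome P450 panel screen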
Cytochrome P450 2C19 = Cytochrome P450 2C19 (Homo sapiens, UniProt P33261); assay: Cytochrome panel assay with activity outcomes. Panel member name: p450-cyp2c19 Compounds with AC50 equal or less than 10 uM are considered active; format: functional; settings: read-out: AC50
HEK293 = assay: inhibitors of LMP1-driven NF-kB reporter, dose response, cell-based, HEK293, luciferase, cherry-pick (AID 588343); format: functional; settings: Homo sapiens
[1] = HepG2 cell cytotoxicity, dose response, cytotoxicity control for Shn3 inhibitor project, CellTiter-Glo, cherry-picked (AID 624134); format: functional, cell-based
[2] = Shn3 3'UTR reporter inhibitors, dose response, cell-based, Clone20 osteoblasts, firefly luciferase, cherry-picked (AID 624132); format: functional;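 note: firefly luciferase luminescence from reporter carrying the Shn3 3'UTR in osteoblasts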
Cytochrome P450 1A2 = target: T1, Cytochrome P450 1A2 (Homo sapiens, UniProt P05177);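 note: PubChem cytochrome P450 panel assay, CYP1A2 panel member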
T1 sequence (P05177 whole entry): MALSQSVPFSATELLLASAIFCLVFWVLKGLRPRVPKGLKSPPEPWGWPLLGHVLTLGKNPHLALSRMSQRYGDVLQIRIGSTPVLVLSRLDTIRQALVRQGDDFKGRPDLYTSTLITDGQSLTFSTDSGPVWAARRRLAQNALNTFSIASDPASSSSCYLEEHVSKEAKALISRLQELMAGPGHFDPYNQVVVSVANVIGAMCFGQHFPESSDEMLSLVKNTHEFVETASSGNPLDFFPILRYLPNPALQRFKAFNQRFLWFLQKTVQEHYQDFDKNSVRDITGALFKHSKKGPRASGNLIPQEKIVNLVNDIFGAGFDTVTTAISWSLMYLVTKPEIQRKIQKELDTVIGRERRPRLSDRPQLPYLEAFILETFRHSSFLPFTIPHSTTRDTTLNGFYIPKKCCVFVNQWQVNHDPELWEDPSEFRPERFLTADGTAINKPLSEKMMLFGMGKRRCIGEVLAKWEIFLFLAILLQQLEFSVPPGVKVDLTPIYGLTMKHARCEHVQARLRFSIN

H9c2 = assay: cells; format: functional, cell-based; settings: Rattus norvegicus, H9c2, Myocardium;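 note: confirmatory concentration-response retest of ultra-high-throughput screening hits for modulation of myocardial damage; cell death induced by hydrogen peroxide oxidative stress; compound pretreatment for 60 min then peroxide exposure for 2 h; potency is for protecting the cells against peroxide damage rather than for killing them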
cells [3] = format: functional, cell-based
cells [4] = format: functional, cell-based; remark: listed apart in the source
Protein RecA = target: T2, Protein RecA (Mycobacterium tuberculosis, UniProt P9WHJ3); assay: Fluorescence Cell-Free Homogeneous Dose Retest to Identify Inhibitors of RecA-Intein Splicing Activity. [Related pubchem assays (depositor defined):AID2097, AID2223, AID489010, AID492950]; format: functional
T2 sequence (P9WHJ3 whole entry): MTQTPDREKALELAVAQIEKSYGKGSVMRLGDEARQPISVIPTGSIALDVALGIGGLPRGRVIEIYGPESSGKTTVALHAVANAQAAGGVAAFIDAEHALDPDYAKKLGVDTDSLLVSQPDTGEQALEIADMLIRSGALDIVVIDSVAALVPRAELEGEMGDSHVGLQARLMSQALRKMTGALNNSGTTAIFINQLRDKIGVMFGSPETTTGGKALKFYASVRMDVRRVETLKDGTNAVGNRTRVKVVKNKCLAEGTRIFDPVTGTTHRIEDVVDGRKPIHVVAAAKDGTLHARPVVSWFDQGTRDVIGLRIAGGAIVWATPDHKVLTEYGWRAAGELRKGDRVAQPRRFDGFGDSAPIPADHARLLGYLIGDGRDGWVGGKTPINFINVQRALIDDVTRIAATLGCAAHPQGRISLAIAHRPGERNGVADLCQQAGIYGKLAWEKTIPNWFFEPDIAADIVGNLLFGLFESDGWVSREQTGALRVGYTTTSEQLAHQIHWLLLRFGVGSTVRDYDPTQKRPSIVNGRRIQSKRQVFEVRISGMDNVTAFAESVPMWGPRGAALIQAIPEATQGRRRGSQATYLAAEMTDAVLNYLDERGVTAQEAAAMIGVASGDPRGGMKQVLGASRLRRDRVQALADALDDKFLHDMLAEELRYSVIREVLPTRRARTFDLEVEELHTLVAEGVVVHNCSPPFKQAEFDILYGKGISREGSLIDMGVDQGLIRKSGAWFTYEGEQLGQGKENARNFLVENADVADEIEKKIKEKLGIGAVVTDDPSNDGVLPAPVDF

[5] = target: T3, Replicative DNA helicase DnaB (Mycobacterium tuberculosis, UniProt P9WMR3); assay: DnaB intein splicing inhibitors, dose response, biochemical, cell-free fluorescence (AID 449749); format: functional
T3 sequence (P9WMR3 whole entry): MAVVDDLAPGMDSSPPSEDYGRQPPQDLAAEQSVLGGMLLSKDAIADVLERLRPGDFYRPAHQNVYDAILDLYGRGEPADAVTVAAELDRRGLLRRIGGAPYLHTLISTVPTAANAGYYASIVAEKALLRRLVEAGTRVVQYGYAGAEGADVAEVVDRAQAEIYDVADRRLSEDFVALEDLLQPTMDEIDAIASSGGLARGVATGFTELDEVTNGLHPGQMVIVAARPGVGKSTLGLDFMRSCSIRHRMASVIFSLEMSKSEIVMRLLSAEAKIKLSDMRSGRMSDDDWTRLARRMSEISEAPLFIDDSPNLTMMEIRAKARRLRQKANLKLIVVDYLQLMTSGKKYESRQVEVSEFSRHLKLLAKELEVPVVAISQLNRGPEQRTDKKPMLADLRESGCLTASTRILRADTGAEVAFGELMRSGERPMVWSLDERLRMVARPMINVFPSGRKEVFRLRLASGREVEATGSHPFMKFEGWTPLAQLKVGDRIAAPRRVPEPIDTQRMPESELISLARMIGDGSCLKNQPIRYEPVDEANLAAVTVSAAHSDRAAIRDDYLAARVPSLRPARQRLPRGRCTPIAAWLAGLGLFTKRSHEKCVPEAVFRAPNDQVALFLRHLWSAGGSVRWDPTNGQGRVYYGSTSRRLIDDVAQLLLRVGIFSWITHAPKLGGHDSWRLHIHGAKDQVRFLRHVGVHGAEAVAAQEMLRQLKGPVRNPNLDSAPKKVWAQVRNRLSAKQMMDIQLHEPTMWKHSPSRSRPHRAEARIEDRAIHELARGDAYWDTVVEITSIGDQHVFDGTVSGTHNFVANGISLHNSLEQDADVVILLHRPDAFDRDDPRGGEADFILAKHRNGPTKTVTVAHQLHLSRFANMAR

Streptococcus = assay: Group A Streptococcus viability loss, dose response, counter-screen for streptokinase expression inhibitor project, luminescence, BacTiterGlo (AID 1915); format: functional, organism-based;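 note: potency for reduction of bacterial viability or growth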
[6] = Luminescence Cell-Based Dose Retest to Confirm Inhibitors of Cancer Stem Cells. [Related pubchem assays (depositor defined):AID2717, AID2721]; format: functional; settings: Homo sapiens
Streptokinase A = target: T4, Streptokinase A (Streptococcus pyogenes serotype M1, UniProt P10520); assay: S. pyogenes streptokinase expression inhibitors, potency, dose response, plasminogen activation absorbance, OD405 (AID 1914); format: functional, Streptococcus pyogenes M1 GAS;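 note: secreted streptokinase activity via plasminogen activation per viability signal from cell pellet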
T4 sequence (P10520 whole entry): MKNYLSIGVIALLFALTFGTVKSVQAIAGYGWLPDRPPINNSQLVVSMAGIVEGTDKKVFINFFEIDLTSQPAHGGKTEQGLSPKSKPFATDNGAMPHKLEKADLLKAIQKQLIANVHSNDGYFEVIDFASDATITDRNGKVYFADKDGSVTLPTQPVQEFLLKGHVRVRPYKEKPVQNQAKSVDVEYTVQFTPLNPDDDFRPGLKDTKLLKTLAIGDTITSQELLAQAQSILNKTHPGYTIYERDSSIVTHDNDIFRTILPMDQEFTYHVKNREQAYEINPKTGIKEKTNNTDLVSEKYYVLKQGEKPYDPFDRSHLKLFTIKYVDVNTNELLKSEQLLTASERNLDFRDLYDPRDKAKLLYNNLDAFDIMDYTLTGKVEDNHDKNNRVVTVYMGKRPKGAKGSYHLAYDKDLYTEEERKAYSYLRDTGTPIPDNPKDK

[7] = tested on: Streptococcus sp. 'group A'; assay: growth inhibition of control SK(-) GAS strain, dose response, counter-screen for streptokinase expression inhibitor project, luminescence, kanamycin, BacTiterGlo, confirmation (AID 1900); format: functional, organism-based
[8] = control 3'UTR Renilla luciferase suppression, dose response, counter-screen for Shn3 inhibitor project, cell-based, Clone20-Shn3RL, cherry-picked (AID 624133); format: functional
INS1 = assay: beta cell apoptosis inhibitors, cytokine rescue, dose response, luminescence, retest (AID 449756); format: functional, cell-based; settings: Rattus norvegicus;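 note: cell death triggered by IL-1 beta plus TNF-alpha plus IFN-gamma mixture; protective hits raise ATP signal compared with cytokine alone wells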
[9] = inhibitors of SNCA 5'UTR-driven reporter translation, confirmation, H4 neuroglioma cells, luminescence (AID 1988); format: functional, cell-based
[10] = Luminescence Cell-Based Dose Response HTS to Identify Inhibitors of 5'UTR Stem-Loop Driven Prion Protein mRNA Translation in H4 Neuroglioblastoma Cells. [Related pubchem assays: 1827 (Project Summary), 1813 (Primary HTS)]; format: functional
[11] = inhibitors of firefly luciferase expression or activity, dose response, H4 neuroglioma cells, luminescence (AID 1990); format: functional, cell-based
[12] = target: Luciferin 4-monooxygenase (Photinus pyralis, UniProt P08659); assay: firefly luciferase enzyme inhibitors, dose response, biochemical, luminescence (AID 1891)
Cytochrome P450 2C9 = Cytochrome P450 2C9 (Homo sapiens, UniProt P11712)
[13] = Luminescence Cell-Based Dose Confirmation HTS to Identify Inhibitors of Platelet Dense Granule Release. [Related pubchem assays: 1663 (Primary HTS), 1678 (Summary of Project)]; format: functional

Cytochrome P450 3A4, sequence (P08684 whole entry): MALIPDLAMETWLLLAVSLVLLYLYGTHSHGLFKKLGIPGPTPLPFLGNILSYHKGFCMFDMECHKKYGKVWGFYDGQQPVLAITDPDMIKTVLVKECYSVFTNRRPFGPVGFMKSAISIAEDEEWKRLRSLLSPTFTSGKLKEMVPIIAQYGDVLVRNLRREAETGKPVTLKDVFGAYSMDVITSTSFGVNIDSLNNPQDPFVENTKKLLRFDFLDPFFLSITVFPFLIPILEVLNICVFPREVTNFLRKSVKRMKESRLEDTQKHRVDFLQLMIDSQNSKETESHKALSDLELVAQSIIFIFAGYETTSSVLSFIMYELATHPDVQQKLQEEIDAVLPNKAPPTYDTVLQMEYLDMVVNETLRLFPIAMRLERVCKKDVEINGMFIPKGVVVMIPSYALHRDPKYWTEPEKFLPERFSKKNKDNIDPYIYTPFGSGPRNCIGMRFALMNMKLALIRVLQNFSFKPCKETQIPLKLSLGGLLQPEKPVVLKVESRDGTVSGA
Cytochrome P450 2D6, sequence (P10635 whole entry): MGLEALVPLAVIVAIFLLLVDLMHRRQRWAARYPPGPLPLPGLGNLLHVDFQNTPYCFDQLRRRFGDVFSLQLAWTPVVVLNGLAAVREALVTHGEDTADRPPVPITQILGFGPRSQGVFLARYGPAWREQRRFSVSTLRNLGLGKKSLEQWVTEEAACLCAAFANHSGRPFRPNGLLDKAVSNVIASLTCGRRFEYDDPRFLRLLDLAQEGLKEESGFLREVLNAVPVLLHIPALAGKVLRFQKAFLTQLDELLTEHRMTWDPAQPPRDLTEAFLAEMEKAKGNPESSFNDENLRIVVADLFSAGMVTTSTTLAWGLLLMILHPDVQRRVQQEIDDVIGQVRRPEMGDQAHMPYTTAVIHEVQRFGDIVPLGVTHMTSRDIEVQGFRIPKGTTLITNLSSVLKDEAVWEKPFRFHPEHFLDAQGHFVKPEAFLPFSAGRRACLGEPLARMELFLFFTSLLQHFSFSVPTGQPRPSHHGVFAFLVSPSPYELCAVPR
Cytochrome P450 2C9, sequence (P11712 whole entry): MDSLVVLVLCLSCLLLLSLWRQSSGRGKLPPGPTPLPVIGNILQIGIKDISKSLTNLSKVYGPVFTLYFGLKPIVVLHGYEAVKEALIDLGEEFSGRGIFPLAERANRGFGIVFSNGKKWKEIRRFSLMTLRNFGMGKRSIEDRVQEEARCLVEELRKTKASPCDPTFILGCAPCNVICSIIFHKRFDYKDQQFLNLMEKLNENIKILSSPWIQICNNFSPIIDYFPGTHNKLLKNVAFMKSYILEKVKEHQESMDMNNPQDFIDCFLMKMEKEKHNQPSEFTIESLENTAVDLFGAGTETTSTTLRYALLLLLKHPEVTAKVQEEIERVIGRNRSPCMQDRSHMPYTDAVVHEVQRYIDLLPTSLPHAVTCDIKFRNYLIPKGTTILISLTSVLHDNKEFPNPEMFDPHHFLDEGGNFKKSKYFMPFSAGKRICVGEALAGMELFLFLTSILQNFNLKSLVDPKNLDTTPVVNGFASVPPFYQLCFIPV
Luciferin 4-monooxygenase, sequence (P08659 whole entry): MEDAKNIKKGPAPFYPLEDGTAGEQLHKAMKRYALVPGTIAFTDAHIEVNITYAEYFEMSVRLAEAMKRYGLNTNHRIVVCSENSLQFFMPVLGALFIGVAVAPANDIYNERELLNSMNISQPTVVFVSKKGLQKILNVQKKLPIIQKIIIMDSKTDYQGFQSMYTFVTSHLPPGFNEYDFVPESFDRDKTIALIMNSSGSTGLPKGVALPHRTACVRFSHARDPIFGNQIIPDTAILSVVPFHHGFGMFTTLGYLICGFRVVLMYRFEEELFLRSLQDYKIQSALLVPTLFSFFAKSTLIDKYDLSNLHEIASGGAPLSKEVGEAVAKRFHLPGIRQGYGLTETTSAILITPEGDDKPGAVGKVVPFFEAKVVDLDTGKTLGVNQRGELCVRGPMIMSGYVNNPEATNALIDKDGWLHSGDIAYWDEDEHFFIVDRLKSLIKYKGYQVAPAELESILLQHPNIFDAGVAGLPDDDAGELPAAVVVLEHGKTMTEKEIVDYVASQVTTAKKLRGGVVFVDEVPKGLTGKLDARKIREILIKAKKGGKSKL
Cytochrome P450 2C19, sequence (P33261 whole entry): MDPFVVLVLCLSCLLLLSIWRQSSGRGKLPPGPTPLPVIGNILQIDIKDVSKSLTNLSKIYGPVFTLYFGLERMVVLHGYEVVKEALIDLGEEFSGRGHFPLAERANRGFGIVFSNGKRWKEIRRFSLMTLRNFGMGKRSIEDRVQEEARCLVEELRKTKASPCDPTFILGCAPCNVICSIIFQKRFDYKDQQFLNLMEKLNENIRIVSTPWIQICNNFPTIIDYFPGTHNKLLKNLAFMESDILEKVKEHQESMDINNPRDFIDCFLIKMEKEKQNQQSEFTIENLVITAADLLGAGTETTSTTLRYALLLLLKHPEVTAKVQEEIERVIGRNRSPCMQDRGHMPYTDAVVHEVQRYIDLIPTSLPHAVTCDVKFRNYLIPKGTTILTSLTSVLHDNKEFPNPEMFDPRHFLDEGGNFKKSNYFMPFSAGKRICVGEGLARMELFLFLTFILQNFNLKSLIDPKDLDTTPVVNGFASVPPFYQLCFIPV

CC1(C)CC2(CCO1)OC(=O)CC2C(=O)NCCc1ccccc1 (stereo not given)
AC50 (Cytochrome P450 2D6): 22.4 µM (inconclusive)
AC50 (Cytochrome P450 3A4): 28.2 µM (inconclusive)
AC50 (Cytochrome P450 2C19): 25.1 µM (inconclusive)

CCN1CCN(Cc2ccc(NC(=O)c3ccc(C)c(NC(=O)c4ccno4)c3)cc2C(F)(F)F)CC1
AC50 (HEK293): 0.0518 µM (active)

Cn1cc([N+](=O)[O-])c(C(=O)Nc2sc3c(c2C#N)CCC3)n1
AC50 [1]: 8.93 µM (active)
AC50 [2]: 0.88 µM (active)

CCNc1ncc2nc(-c3ccc(F)cc3)c(=O)n(-c3ccc(OC)cc3)c2n1
AC50 (Cytochrome P450 2D6): 0.158 µM (inconclusive)
AC50 (Cytochrome P450 1A2): 6.31 µM (inconclusive)
AC50 (Cytochrome P450 3A4): 20 µM (inconclusive)

CCC(C)NC(=O)Cn1cnc2sc(C)cc2c1=O (stereo not given)
AC50 (Cytochrome P450 2D6): 25.1 µM (inconclusive)
AC50 (Cytochrome P450 1A2): 6.31 µM (inconclusive)

O=C(CCc1nc(O)c2ccccc2n1)N1CCN(c2ccc(F)cc2)CC1
IC50 (H9c2): > 79 µM (inactive)

CC(C)(C)NC(=O)COC(=O)c1ccc(Cl)nc1
EC50 (cells [3]): > 350 µM (not active)
EC50 (cells [4]): > 350 µM (not active)

Cc1ccc(-n2nc(C)c3c2OC(N)=C(C#N)C3c2ccco2)cc1 (stereo not given)
EC50 (Protein RecA): 6.22 µM (inconclusive)
AC50 (Cytochrome P450 3A4): 17.8 µM (inconclusive)
AC50 [5]: 35.1 µM (inconclusive)

CN1CCN(Cc2nc(O)c3ccccc3n2)CC1
IC50 (H9c2): 24 µM (active)

CC(=O)N1CCC2(CCCN(c3ncccn3)C2)CC1
AC50 (Cytochrome P450 2D6): 31.6 µM (inconclusive)

CCC/C=C(\CCC)C(NS(=O)(=O)c1ccc(C(F)(F)F)cc1)c1ccccc1 (stereo not given)
AC50 (Cytochrome P450 2D6): 20 µM (inconclusive)
EC50 (Streptococcus): 22.5 µM (active)
AC50 [6]: 3.36 µM (active)
EC50 (Streptokinase A): 2.24 µM (active)
EC50 [7]: 2.73 µM (active)

Cc1cc(C)cc(C(=O)Nc2ccc(NC(=O)c3cccs3)cc2)c1
IC50 (H9c2): > 79 µM (inactive)

COc1ccc(NC(=S)N2CCN(C(=O)c3ccccc3)CC2)cc1
EC50 (cells [3]): > 350 µM (not active)
EC50 (cells [4]): > 350 µM (not active)

O=C(N/N=C/c1ccc2c(c1)OCO2)c1ccc(NC(=O)c2ccccc2Cl)cc1
IC50 (H9c2): 9.19 µM (active)

Cn1ncc(Cl)c1C(=O)Nc1nc2ccc(Cl)cc2s1
EC50 (cells [3]): > 350 µM (not active)
EC50 (cells [4]): 0.85 µM (active)

O=C(CSc1nnc(Cc2cccs2)n1CCc1ccccc1)N1CCCc2ccccc21
IC50 (H9c2): > 79 µM (inactive)

NC(=O)c1nsc(C(=O)N(CCc2ccccc2)C(C(=O)NC2CCCC2)c2ccco2)c1N (stereo not given)
IC50 (H9c2): > 79 µM (inactive)

Oc1c(Cl)cc(Cl)cc1/C=N/c1ccc(N2CCOCC2)cc1
IC50 (H9c2): > 79 µM (inactive)

Cc1ccccc1CN1CC2=C(CCN(Cc3ccccc3)C2=O)N2CCN=C12
AC50 [1]: 3.31 µM (active)
AC50 [8]: 29.6 µM (active)
AC50 [2]: 2.41 µM (active)

CC(C)C1Nc2ccc(C(=O)N3CCN(c4ccccn4)CC3)cc2NC1=O (stereo not given)
IC50 (H9c2): 21.2 µM (active)

CCCNC(=O)c1c(N)n(-c2cccc(OC)c2)c2nc3ccccc3nc12
AC50 (INS1): 36.8 µM (active)
IC50 (H9c2): 28.5 µM (active)

N#Cc1ccc(CN2CCC3(CC2)CCN(C(=O)c2cccc(F)c2)CC3)cc1
AC50 (Cytochrome P450 2D6): 12.6 µM (inconclusive)

Cc1cc(C)cc(N(CC(=O)NCCSc2ccccn2)S(=O)(=O)c2ccccc2)c1
AC50 (Cytochrome P450 2D6): 11.2 µM (inconclusive)

CCCCN1C2CCCC1CC(NC(=O)C1CCCCC1)C2 (stereo not given)
AC50 (HEK293): 237 µM (active)

COc1cc(SC)ccc1C(=O)Nc1ccc(C)cc1C
EC50 (cells [3]): > 350 µM (not active)
EC50 (cells [4]): 5.81 µM (active)

COc1ccc(NC(=O)CNC(=O)Cc2cccc3ccccc23)c(OC)c1
EC50 (cells [3]): > 350 µM (not active)
EC50 (cells [4]): > 350 µM (not active)

CC(C)(C)n1nc(-c2ccc(Cl)cc2)c2c(N)ncnc21
EC50 [9]: 6.21 µM (active)
AC50 (HEK293): 12.2 µM (active)
EC50 [10]: 12.4 µM (active)
EC50 [11]: 7.3 µM (active)
EC50 [12]: 23.3 µM (active)
AC50 (Cytochrome P450 2C9): 7.08 µM (inconclusive)
EC50 [13]: 5.58 µM (active)

CCOC(=O)C1=C(c2ccccc2)N=c2s/c(=C\c3ccco3)c(=O)n2C1c1cccs1 (stereo not given)
AC50 (Cytochrome P450 2D6): 15.8 µM (inconclusive)
AC50 (Cytochrome P450 3A4): 22.4 µM (inconclusive)

Reference: ChEMBL document CHEMBL1201862, “PubChem BioAssay data set” (2004)
